Assay results as given in patent US20040132706A1, “Composition comprising a catalyst for the dismutation of superoxide and use of the composition for preventing and treating hypotension” (priority 2003, published 2004).
“Also recorded” adds a separate entry of the source.

Legend:
anaesthetized rat [1] = assay: Pressor effect of norepinephrine incubates on MAP in the anaesthetized rat; format: in vivo, Male Sprague Dawley rats; conditions: n=6
Description: (§1) Anaesthetized Rat Model. Male Sprague Dawley rats (250-300 g) were anaesthetized with inactin (100 mg/Kg intraperitoneally). The trachea was cannulated to facilitate respiration and body temperature was maintained at 37° C. by means of a heating pad. The left femoral vein was cannulated for administration of drugs. The left femoral artery was cannulated and connected to a pressure transducer to allow for the monitoring of blood pressure. Lipopolysaccharide from E. coli (LPS; 4 mg/Kg, serotype 0111:B4) was administered as a bolus intravenous injection at a volume of 0.3 ml. Control animals received saline at the same volume and by the same route. In experiments involving blood samples, such blood samples were withdrawn from the arterial cannula.
Male Sprague Dawley rats (250-300 g, 6 rats per group) were anaesthetized and prepared according to the methods of Example 1. 0.5 mg/Kg of norepinephrine was administered as an intravenous (i.v) bolus injection through the left femoral vein. Animals in a control group received saline at the same volume and by the same route. The left femoral artery was cannulated and connected to a pressure transducer to allow for the monitoring of blood pressure during the experiment. The change in the blood pressure of the animals was compared to the blood pressure of animals in the control group. The results of the tests can be found in FIG. 1. Norepinephrine raised the MAP of the rats by 34±3.7 mmHg (FIG. 1b; n=6). […] When SOD mimetic M40403 was included with HX/XO in the incubation mixture, the vasopressor actions of were protected as shown by its ability to restore MAP back to near control values (38±3.6 mmHg) (FIG. 1b; n=6).

anaesthetized rat [2] = assay: LPS-induced hypotension and mortality in the anaesthetized rat; format: in vivo, Male Sprague Dawley rats
Description: as §1
Intravenous injection of LPS (4 mg/Kg) in rats led to a profound fall in blood pressure associated with a high mortality rate (99±5% mortality at 9 hours, n=10, FIG. 3). Furthermore, the plasma levels of norepinephrine as well as the adrenochromes increased after LPS treatment (FIGS. 4a,b,c; n=10). Levels of the catecholamines and of the adrenochromes could not be evaluated at the 9 h timepoint (survival rate at this point was 1%, n=10).
(FIG. 3; n=10). Inhibition of hypotension by M40403 was associated with increased levels of catecholamines (FIGS. 4a and b) and concommittant decrease (FIG. 4c; n=10) in plasma levels of the adrenochromes, the reaction products of O2^− and these catecholamines. In addition, when the administration of M40403 was postponed until 5 hours post LPS in this model the severe hypotensive phase of this condition was reversed (FIG. 3; n=10).
When 15 mg/Kg of 5,10,15,20-tetrakis (2,4,6-trimethyl-3,5-disulfonatophenyl)-porphyrinato iron (III) (FeTMPS) was administered (i.v bolus injection 1 hour after LPS), the development of hypotension was prevented.

anaesthetized rat [3] = assay: LPS-induced hyporeactivity to exogenous norepinephrine in the anaesthetized rat; format: in vivo, Male Sprague Dawley rats
Description: as §1
Injection of E. coli lipopolysaccharide (LPS) to rats leads to the development of hyporeactivity to exogeneously administered norepinephrine which typically occurs in the first two hours. Male Sprague Dawley rats (250-300 g, number in group) were anaesthetized and prepared according to the methods of Example 1. Increasing dosages of norepinephrine (0.1, 0.5 and 1 mg/Kg) were given as intravenous bolus injections. Animals in a control group received saline at the same volume and by the same route. The left femoral artery was cannulated and connected to a pressure transducer to allow for the monitoring of blood pressure during the experiment. The change in the blood pressure of the animals was compared to the blood pressure of animals in the control group. […] Pressor responses to norepinephrine in rats not treated with LPS were unaffected by the SOD mimetic M40403 (FIG. 2; n=6).
Injection of E. coli lipopolysaccharide (LPS) to rats leads to the development of hyporeactivity to exogeneously administered norepinephrine which typically occurs in the first two hours. Male Sprague Dawley rats (250-300 g, number in group) were anaesthetised and prepared according to the methods of Example 1. Increasing dosages of norepinephrine (0.1, 0.5 and 1 mg/Kg) were given as intravenous bolus injections. Animals in a control group received saline at the same volume and by the same route. The left femoral artery was cannulated and connected to a pressure transducer to allow for the monitoring of blood pressure during the experiment. The change in the blood pressure of the animals was compared to the blood pressure of animals in the control group.

[4] = Plasma catecholamine and adrenochrome concentrations after LPS; format: in vivo, Male Sprague Dawley rats; conditions: M40403 0.25 mg/Kg/h given at 1 h post LPS 4 mg/Kg i.v.; n=10
Description: as §1, with “In experiments involving blood samples, such blood samples were withdrawn from the arterial cannula.” left out
Catecholamine measurements. Catecholamines in test tube samples or plasma samples were identified and quantified by high pressure liquid chromatography with electrochemical detection (HPLC-EC). […] The HPLC system is coupled to a PS-90 computer with which chromatograms were recorded and analyzed with Varian Star workstation software.
Adrenochrome measurements. The detection and quantification of the sum of the noradrenochrome and adrenochrome was carried out using an HPLC method utilising a Vydac C18 Pharmaceutical 4.6×250 mm column and with a 5% acetonitrile+95% SDS (10 mM) mobile phase (5 min elution), then 40% acetonitrile with 60% SDS plus 0.1% TFA (5 min elution) mobile phase, all eluted at […]. […]

[5] = test system: O2− generated by hypoxanthine/xanthine oxidase (HX/XO); assay: Deactivation of catecholamines by hypoxanthine/xanthine oxidase superoxide generating system, HPLC detection; format: biochemical; conditions: HX 2 mM / XO 1 U/ml, n=6; for chemical detection of the catecholamines by HPLC after exposure to HX/XO: no SOD mimetic
Description: Catecholamine measurements. Catecholamines in test tube samples or plasma samples were identified and quantified by high pressure liquid chromatography with electrochemical detection (HPLC-EC). The system consists of a Varian model 2510 solvent delivery system and a model 9090 autosampler (Varian, Walnut Creek, Calif.) coupled to a C18 column and an ESA Coulochem II detector. Separations were performed isocratically using a filtered and degassed mobile phase consisting of 10% methanol, 0.1 M sodium phosphate, 0.2 mM sodium octyl sulfate and 0.1 mM EDTA, adjusted to pH 2.8 with phosphoric acid. The HPLC system is coupled to a PS-90 computer with which chromatograms were recorded and analyzed with Varian Star workstation software.
Hypoxanthine (HX;2 mM)/xanthine oxidase (XO; 1 U/ml) results in the generation of O2^− in the ratio of 2 molecules of O2^− to every one molecule of HX used.

[Cl-].[Cl-].[Mn+2].c1cc2nc(c1)CN[C@@H]1CCCC[C@H]1NCCN[C@@H]1CCCC[C@H]1NC2 [M40403]
ability of norepinephrine to increase MAP after incubation with HX/XO (anaesthetized rat [1]; M40403 in the incubate, incubation 5 min, norepinephrine 0.5 mg/Kg bolus i.v.): preserved
increase in MAP by norepinephrine incubated with HX/XO plus M40403 (anaesthetized rat [1]; norepinephrine 0.5 mg/Kg i.v. bolus, M40403 included in HX/XO incubation mixture): 38±3.6 mmHg
fall in MAP (severe hypotensive phase) after LPS (anaesthetized rat [2]; M40403 0.25 mg/Kg administered at 5 h post LPS 4 mg/Kg i.v., n=10): reverses
survival by 9 h (anaesthetized rat [2]; M40403 0.25 mg/Kg/h i.v. infusion 1 hour post LPS 4 mg/Kg, n=10): 99±2%
fall in MAP (development of hypotension) after LPS (anaesthetized rat [2]; M40403 0.25 mg/Kg/h i.v. infusion from 1 h post LPS 4 mg/Kg i.v., n=10): prevents
pressor responses to norepinephrine two hours after LPS (anaesthetized rat [3]; M40403 0.25 mg/Kg, 15 min i.v. infusion 1 hour after LPS 4 mg/Kg, norepinephrine 0.1, 0.5 and 1 mg/Kg): restored
hyporeactivity to norepinephrine after LPS (anaesthetized rat [3]; M40403 1 mg/Kg, LPS 4 mg/Kg, norepinephrine 0.1-1 mg/Kg, n=6): reversed
reactivity (pressor responses) to norepinephrine in rats not treated with LPS (anaesthetized rat [3]; saline treated rats, M40403, n=6): unaffected; also recorded: not affected
plasma concentrations of adrenochromes versus LPS alone [4]: decrease; also recorded: significantly lower
plasma concentrations of epinephrine and norepinephrine versus LPS alone [4]: increased; also recorded: significantly higher
reduction of chemical detection (HPLC) of norepinephrine and epinephrine after incubation with HX/XO ([5]; M40403 10^−6 M, incubation 5 min): prevented

CNC[C@H](O)c1ccc(O)c(O)c1 [epinephrine]
chemical detection of the catecholamines by HPLC after exposure to HX/XO [5]: significant decreases

NC[C@H](O)c1ccc(O)c(O)c1 [norepinephrine, reference compound]
increase in MAP by norepinephrine after incubation with HX/XO (anaesthetized rat [1]; norepinephrine 0.5 mg/Kg i.v. bolus, incubated with HX/XO): 17±2.5 mmHg
increase in MAP by norepinephrine (anaesthetized rat [1]; norepinephrine 0.5 mg/Kg i.v. bolus, not incubated): 34±3.7 mmHg
chemical detection of the catecholamines by HPLC after exposure to HX/XO [5]: significant decreases

5,10,15,20-tetrakis (2,4,6-trimethyl-3,5-disulfonatophenyl)-porphyrinato iron (III) [FeTMPS]
fall in MAP after LPS, therapeutic treatment (anaesthetized rat [2]; FeTMPS 10 mg/Kg/h at 1 h post LPS 4 mg/Kg i.v. (FIG. 7)): prevents
fall in MAP after LPS, prophylactic treatment (anaesthetized rat [2]; FeTMPS 10 mg/Kg/h at 1 h post LPS 4 mg/Kg i.v. (FIG. 8)): prevents
development of hypotension after LPS (anaesthetized rat [2]; FeTMPS 15 mg/Kg i.v. bolus injection 1 hour after LPS): prevented
hyporeactivity to exogenous norepinephrine after LPS (anaesthetized rat [3]; FeTMPS 15 mg/kg given at 1 h post LPS 4 mg/Kg): prevented; also recorded: reversed
reactivity to norepinephrine in saline treated rats (anaesthetized rat [3]; FeTMPS, saline treated rats, n=6): not significantly affected
